Reference: ChEMBL document CHEMBL1667735, “Human cytochrome P450 liability studies of trans-dihydronarciclasine: a readily available, potent, and selective cancer cell growth inhibitor” (J Nat Prod, 2011)

Columns and labels:
[1] = target: T1, Cytochrome P450 1A1 (Homo sapiens, UniProt P04798); test: Inhibition of human CYP1A1 at 10 uM; assay type: ADME
T1 sequence (P04798 whole entry): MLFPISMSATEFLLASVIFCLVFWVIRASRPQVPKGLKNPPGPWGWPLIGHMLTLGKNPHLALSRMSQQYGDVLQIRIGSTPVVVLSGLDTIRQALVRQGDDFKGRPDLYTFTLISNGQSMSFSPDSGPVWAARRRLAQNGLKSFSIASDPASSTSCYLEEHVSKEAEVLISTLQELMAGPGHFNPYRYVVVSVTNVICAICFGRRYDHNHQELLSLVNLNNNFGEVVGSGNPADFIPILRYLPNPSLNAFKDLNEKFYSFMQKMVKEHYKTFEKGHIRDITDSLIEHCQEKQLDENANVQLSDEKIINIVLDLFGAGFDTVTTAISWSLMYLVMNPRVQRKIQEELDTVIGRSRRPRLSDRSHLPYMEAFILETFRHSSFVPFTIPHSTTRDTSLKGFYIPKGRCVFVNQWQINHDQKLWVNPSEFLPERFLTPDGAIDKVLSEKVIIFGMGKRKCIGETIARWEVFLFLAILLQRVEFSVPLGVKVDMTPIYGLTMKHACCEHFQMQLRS

[2] = target: T2, Aromatase (Homo sapiens, UniProt P11511); test: Inhibition of human CYP19 at 10 uM; assay type: ADME
T2 sequence (P11511 whole entry): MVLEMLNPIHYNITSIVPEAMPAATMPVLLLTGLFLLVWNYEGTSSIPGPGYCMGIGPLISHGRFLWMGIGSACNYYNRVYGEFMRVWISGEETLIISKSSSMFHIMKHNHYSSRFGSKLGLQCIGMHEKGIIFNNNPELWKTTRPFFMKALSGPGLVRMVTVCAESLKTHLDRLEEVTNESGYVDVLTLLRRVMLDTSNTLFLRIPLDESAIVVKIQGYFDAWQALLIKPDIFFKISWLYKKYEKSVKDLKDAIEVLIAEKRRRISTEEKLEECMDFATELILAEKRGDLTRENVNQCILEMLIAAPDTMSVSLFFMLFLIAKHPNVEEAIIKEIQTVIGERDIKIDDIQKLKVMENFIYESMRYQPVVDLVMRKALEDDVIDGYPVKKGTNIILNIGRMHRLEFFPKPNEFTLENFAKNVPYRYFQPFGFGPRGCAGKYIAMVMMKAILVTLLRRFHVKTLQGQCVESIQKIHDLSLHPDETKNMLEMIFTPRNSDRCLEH

SMILES: O=C1N[C@H]2[C@H](O)[C@H](O)[C@@H](O)C[C@@H]2c2cc3c(c(O)c21)OCO3
- inhibition (INH) [1]: Not Active
- inhibition (INH) [2]: Not Active
